# Patent publication US4434788A, “Enhancer of anti-tumor effect” (Yamasa Shoyu Kabushiki Kaisha, priority 1980, dated 1984)
# Read-outs that look alike come from different tables or passages of the source.
# Legend:
# EMT-6 tumors [1] = test: Enhancement of the effect of anti-tumor agents on EMT-6 tumor in mouse; type: in vivo, BALB/c-strain mice; settings: for Mean tumor diameter 7 days after commencement of treatment: control 7.38; for Mean tumor diameter 14 days after commencement of treatment: control 9.20; for Mean tumor diameter ratio 7 days after commencement of treatment: control 1.27; for Mean tumor diameter ratio 14 days after commencement of treatment: control 1.57
# Experimental: (1) EMT-6 tumor cells (1×10^6) were inoculated intradermally into the right thighs of BALB/c-strain mice (7 weeks old). On the 10th day after inoculation of the tumor cells and thereafter, various enhancer chemicals in physiological saline solutions were administered intrapenitoneally to the mouse every other day in the indicated doses for respective agents. The pharmaceutical agents of the present invention were administered 30 minutes after administration of the anti-tumor agents. After commencement of the treatment with pharmaceutical agents, the tumor sizes were measured every other day and compared with the control group.
# HA-1 cells = test: Survival percent of stationary-phase HA-1 cells treated with enhancer 30 minutes before X-ray irradiation; type: cell-based, Chinese hamster
# Experimental: (§1) (2) HA-1 cells under stationary phase prepared similarly as in (1), were irradiated with various doses (200 to 800 R) of X-rays for examination of effects of the enhancer on plating efficiencies of the cells. The treatment with the enhancer was conducted 30 minutes before irradiation. Measurement of plating efficiencies was carried out for the cells immediately after irradiation with X-rays.
# [2] = as above; type: cell-based, Chinese hamster; settings: ha-1 cells, no irradiation, control 90, read-out: Plating efficiency of the group not irradiated with X-Rays
# Experimental: as §1
# [3] = test system: potentially lethal damage repair; test: PLDR-inhibiting / radiosensitizing activity (general statements)
# [4] = test system: Chinese hamster-HA-1 cells; test: Plating efficiency of stationary-phase HA-1 cells given enhancer immediately after 1,000 R X-ray (inhibition of PLDR); type: cell-based; settings: for Plating efficiency after 3 hours: control 1.8; for Plating efficiency after 6 hours: control 2.4; for Plating efficiency after 9 hours: control 3.8
# Experimental: (§2) (1) Cells under stationary phase, prepared by planting 2×10^5 cells/well of Chinese hamster-HA-1 cells in a multiwell dish and exchanging cultural medium every day starting on the third day and thereafter were irradiated with 1,000 R of X-rays. Immediately after radiation, 3'-dUrd, and 3'-dGuo in HANKs' balanced salt solution were administered. Then, after elapse of various times, the cells were taken off with trypsin, and a suitable number of cells were transferred into petri dishes for testing colony forming ability and plating efficiencies. The percentages of survival were calculated with corrections by the plating efficiencies with the pharmaceutical agents alone.
# [5] = as above; type: cell-based, Chinese hamster; settings: chinese hamster, ha-1 cells, no irradiation, control 66, read-out: Plating efficiency, treated only with enhancer (after 9 hours)
# Experimental: as §2
# EMT-6 tumors [6] = test: Radiosensitizing effect on EMT-6 tumor in mouse, 1500 rad, tumor size and cure; type: in vivo, BALB/c-strain female mice
# adenosinedeaminase = settings: cited from earlier work
# [7] = ADM alone 2 mg/kg × 8, n = 10, before treatment 6.72 ± 1.00
# [8] = araC alone 50 mg/kg × 8, n = 7, before treatment 6.11 ± 0.78
# [9] = 3'-dUrd 150 μg/ml after 1,000 R
# [10] = 3'-dUrd 300 μg/ml after 1,000 R
# [11] = 3'-dUrd 600 μg/ml after 1,000 R
# [12] = 3'-dUrd 0.8 mg/mouse + irradiation 1500 rad, irradiation alone 0%
# [13] = 3'-dUrd 0.8 mg/mouse + irradiation 1500 rad, irradiation alone 0/10
# [14] = ACNU alone 25 mg/kg × 5, n = 7, before treatment 6.23 ± 0.76
compound,measurement,setting,value
"Bleomycin [BLM, reference compound]",Mean tumor diameter 18 days after commencement of treatment,"EMT-6 tumors [1]; BLM alone 25 mg/kg × 4, n = 10, before treatment 6.12 ± 1.17, control 11.43 ± 2.30",9.77 ± 2.50 mm
same,Mean tumor diameter ratio 18 days after commencement of treatment,"EMT-6 tumors [1]; BLM alone 25 mg/kg × 4, n = 10, control 1.97 ± 0.40",1.60 ± 0.41
"COc1cccc2c1C(=O)c1c(O)c3c(c(O)c1C2=O)C[C@@](O)(C(=O)CO)C[C@@H]3O[C@H]1C[C@H](N)[C@H](O)[C@H](C)O1 [ADM, Adriamycin, reference compound]",Mean tumor diameter 7 days after commencement of treatment,EMT-6 tumors [1]; [7],7.67 ± 1.30 mm
same,Mean tumor diameter 14 days after commencement of treatment,EMT-6 tumors [1]; [7],9.04 ± 1.77 mm
same,Mean tumor diameter ratio 7 days after commencement of treatment,"EMT-6 tumors [1]; ADM alone 2 mg/kg × 8, n = 10",1.17 ± 0.29
same,Mean tumor diameter ratio 14 days after commencement of treatment,"EMT-6 tumors [1]; ADM alone 2 mg/kg × 8, n = 10",1.38 ± 0.36
"Nc1ccn([C@@H]2O[C@H](CO)[C@@H](O)[C@@H]2O)c(=O)n1 [araC, 1-β-D-arabinofuranosylcytosine, reference compound]",Mean tumor diameter 7 days after commencement of treatment,EMT-6 tumors [1]; [8],7.11 ± 1.48 mm
same,Mean tumor diameter 14 days after commencement of treatment,EMT-6 tumors [1]; [8],8.07 ± 2.62 mm
same,Mean tumor diameter ratio 7 days after commencement of treatment,"EMT-6 tumors [1]; araC alone 50 mg/kg × 8, n = 7",1.16 ± 0.18
same,Mean tumor diameter ratio 14 days after commencement of treatment,"EMT-6 tumors [1]; araC alone 50 mg/kg × 8, n = 7",1.38 ± 0.46
"O=c1ccn([C@@H]2O[C@H](CO)C[C@H]2O)c(=O)[nH]1 [3'-dUrd, 3'-deoxyuridine]",Survival percent of the group irradiated with X-Rays,"HA-1 cells; 100 μg/ml, 200R, control 88",45%
same,Survival percent of the group irradiated with X-Rays,"HA-1 cells; 100 μg/ml, 400R, control 27",19%
same,Survival percent of the group irradiated with X-Rays,"HA-1 cells; 100 μg/ml, 600R, control 5.9",5.2%
same,Survival percent of the group irradiated with X-Rays,"HA-1 cells; 100 μg/ml, 800R, control 1.9",1.8%
same,Survival percent of the group irradiated with X-Rays,"HA-1 cells; 200 μg/ml, 200R, control 88",39%
same,Survival percent of the group irradiated with X-Rays,"HA-1 cells; 200 μg/ml, 400R, control 27",15%
same,Survival percent of the group irradiated with X-Rays,"HA-1 cells; 200 μg/ml, 600R, control 5.9",4.9%
same,Survival percent of the group irradiated with X-Rays,"HA-1 cells; 200 μg/ml, 800R, control 1.9",1.8%
same,Survival percent of the group irradiated with X-Rays,"HA-1 cells; 400 μg/ml, 200R, control 88",30%
same,Survival percent of the group irradiated with X-Rays,"HA-1 cells; 400 μg/ml, 400R, control 27",13%
same,Survival percent of the group irradiated with X-Rays,"HA-1 cells; 400 μg/ml, 600R, control 5.9",3.8%
same,Survival percent of the group irradiated with X-Rays,"HA-1 cells; 400 μg/ml, 800R, control 1.9",1.2%
same,Survival percent of the group irradiated with X-Rays,"HA-1 cells; 800 μg/ml, 200R, control 88",29%
same,Survival percent of the group irradiated with X-Rays,"HA-1 cells; 800 μg/ml, 400R, control 27",13%
same,Survival percent of the group irradiated with X-Rays,"HA-1 cells; 800 μg/ml, 600R, control 5.9",3.8%
same,Survival percent of the group irradiated with X-Rays,"HA-1 cells; 800 μg/ml, 800R, control 1.9",1.0%
same,Sensitizing effect under X-ray irradiation,"HA-1 cells; HA-1 cells, Table 2",found to exhibit sensitizing effect especially with low dosage of irradiation with X-rays
same,viability,[2]; 100 μg/ml,85%
same,viability,[2]; 200 μg/ml,87%
same,viability,[2]; 400 μg/ml,85%
same,viability,[2]; 800 μg/ml,80%
same,Radiosensitizing activity,[3],excellent radiosensitizing activities
same,Plating efficiency after 3 hours,[4]; [9],1.6%
same,Plating efficiency after 6 hours,[4]; [9],2.2%
same,Plating efficiency after 9 hours,[4]; [9],3.5%
same,Plating efficiency after 3 hours,[4]; [10],1.2%
same,Plating efficiency after 6 hours,[4]; [10],1.9%
same,Plating efficiency after 9 hours,[4]; [10],3.1%
same,Plating efficiency after 3 hours,[4]; [11],0.9%
same,Plating efficiency after 6 hours,[4]; [11],1.6%
same,Plating efficiency after 9 hours,[4]; [11],2.6%
same,Inhibition of repair (PLDR) after irradiation with X-rays,"[4]; HA-1 cells, Table 1",found to inhibit repair (PLDR) after irradiation with X-rays
same,Toxicity as examined by plating efficiencies,"[4]; HA-1 cells, Table 1",Substantially no toxicity was observed
same,viability at 9 h,[5]; 3'-dUrd 150 μg/ml,65%
same,viability at 9 h,[5]; 3'-dUrd 300 μg/ml,60%
same,viability at 9 h,[5]; 3'-dUrd 600 μg/ml,58%
same,Cure (number of mice),"EMT-6 tumors [6]; 3'-dUrd 0.8 mg/mouse + irradiation 1500 rad, 28 days, irradiation alone 1/10",3/7
same,Cure (percent),"EMT-6 tumors [6]; 3'-dUrd 0.8 mg/mouse + irradiation 1500 rad, 28 days, irradiation alone 10%",43%
same,0.5 to less than 1 of volume ratio excluding cure; Tumor regression rate: slow (percent),EMT-6 tumors [6]; [12],0%
same,Less than 0.5 of volume ratio excluding cure; Tumor regression rate: rapid (percent),EMT-6 tumors [6]; [12],14%
same,0.5 to less than 1 of volume ratio excluding cure; Tumor regression rate: slow (number),EMT-6 tumors [6]; [13],0/7
same,Less than 0.5 of volume ratio excluding cure; Tumor regression rate: rapid (number),EMT-6 tumors [6]; [13],1/7
same,1.0 to less than 2.0 of volume ratio excluding cure; regrowth: slow (number),"EMT-6 tumors [6]; 3'-dUrd 0.8 mg/mouse + irradiation 1500 rad, irradiation alone 3/10",2/7
same,2.0 or more of volume ratio excluding cure; regrowth: rapid (number),"EMT-6 tumors [6]; 3'-dUrd 0.8 mg/mouse + irradiation 1500 rad, irradiation alone 6/10",1/7
same,1.0 to less than 2.0 of volume ratio excluding cure; regrowth: slow (percent),"EMT-6 tumors [6]; 3'-dUrd 0.8 mg/mouse + irradiation 1500 rad, irradiation alone 30%",29%
same,2.0 or more of volume ratio excluding cure; regrowth: rapid (percent),"EMT-6 tumors [6]; 3'-dUrd 0.8 mg/mouse + irradiation 1500 rad, irradiation alone 60%",14%
same,Mean tumor diameter 2 weeks after treatment,"EMT-6 tumors [6]; 3'-dUrd 40 mg/kg i.p. 30 min before 1500 rad, n = 7, baseline 6.00 ± 0.41 mm, irradiation alone 7.41",6.31 ± 0.97 mm
same,Mean tumor diameter 3 weeks after treatment,"EMT-6 tumors [6]; 3'-dUrd 40 mg/kg i.p. 30 min before 1500 rad, n = 7, baseline 6.00 ± 0.41 mm, irradiation alone 8.29",4.29 ± 1.73 mm
same,Diameter ratio 2 weeks after treatment,"EMT-6 tumors [6]; 3'-dUrd 40 mg/kg i.p. 30 min before 1500 rad, n = 7, irradiation alone 1.09",1.06 ± 0.15
same,Diameter ratio 3 weeks after treatment,"EMT-6 tumors [6]; 3'-dUrd 40 mg/kg i.p. 30 min before 1500 rad, n = 7, irradiation alone 1.17",0.66 ± 0.25
same,Volume ratio 2 weeks after treatment,"EMT-6 tumors [6]; 3'-dUrd 40 mg/kg i.p. 30 min before 1500 rad, n = 7, irradiation alone 1.44",1.63 ± 0.44
same,Volume ratio 3 weeks after treatment,"EMT-6 tumors [6]; 3'-dUrd 40 mg/kg i.p. 30 min before 1500 rad, n = 7, irradiation alone 2.06",1.21 ± 0.60
OC[C@H]1O[C@@H](n2cnc3c2N=CNC[C@H]3O)C[C@@H]1O [2'-deoxycoformycin],Inhibition of adenosinedeaminase,adenosinedeaminase,inhibitor against adenosinedeaminase
"Cc1ncc(CNC(=O)N(CCCl)N=O)c(N)n1 [ACNU, reference compound]",Mean tumor diameter 7 days after commencement of treatment,EMT-6 tumors [1]; [14],5.51 ± 1.91 mm
same,Mean tumor diameter 14 days after commencement of treatment,EMT-6 tumors [1]; [14],6.54 ± 1.82 mm
same,Mean tumor diameter ratio 7 days after commencement of treatment,"EMT-6 tumors [1]; ACNU alone 25 mg/kg × 5, n = 7",0.87 ± 0.21
same,Mean tumor diameter ratio 14 days after commencement of treatment,"EMT-6 tumors [1]; ACNU alone 25 mg/kg × 5, n = 7",1.06 ± 0.29
"O=c1[nH]c(=O)n(C2CCCO2)cc1F (stereo not drawn) [FT-207, 1-(2-tetrahydrofuryl)-5-fluorouracil, reference compound]",Mean tumor diameter 18 days after commencement of treatment,"EMT-6 tumors [1]; FT-207 alone 100 mg/kg × 6, n = 9, before treatment 6.96 ± 1.43, control 11.43",8.37 ± 2.12 mm
same,Mean tumor diameter ratio 18 days after commencement of treatment,"EMT-6 tumors [1]; FT-207 alone 100 mg/kg × 6, n = 9, control 1.97",1.20 ± 0.31
